From patent US11642419B2, “Compositions and methods for treating cardiovascular related disorders” (The Regents of the University of Michigan, priority 2015, dated 2023)

What was measured:
ABCA1 [1] = assay: qRT-PCR of ABCA1 in blood monocytes of treated apoE−/− mice; format: in vivo; conditions: 1.5 mg/kg TO901317 i.p., three times per week, 6 weeks, FIG. 11
Description: (§1) The effect of TO901317-encapsulated sHDL on target gene expression in monocytes from apoE^−/− mice was also investigated. Six-week-old male apoE^−/− mice were place on atherogenic high fat diet (HFD) for 12 weeks to induce atherosclerotic lesion formation. Mice were randomly divided into five groups, and each group was treated with intraperitoneal injections of the following regimens with an equivalent dose of 1.5 mg/kg entrapped TO901317: 1) PBS, 2) DMSO, 3) TO901317 dissolved in dimethyl sulfoxide (DMSO) (free TO901317), 4) sHDL nanoparticles, or 5) TO901317-encapsulated sHDL particles. The mice were treated for 6 weeks (three times per week, on Monday, Wednesday and Friday). The monocytes from the blood were isolated and the expression of ABCA1 and ABCG1 was detected by qRT-PCR as described in FIG. 5.

SREBP1c [2] = assay: qRT-PCR of SREBP1c expression in the liver of C57BL/6J mice; format: in vivo; conditions: liver tissues from FIG. 8, FIG. 9
Description: To visualize whether sHDL can deliver its cargo to the plaque efficiently, a lipophilic near-infrared fluorescent dye, DiD, was incorporated into sHDL. […] The DiD-labeled sHDL nanoparticles were administrated by tail vein injection at a dose of 100 μg DiD and 10 mg/Kg sHDL to a murine atherosclerosis model. 24 hours post injection, animals were sacrificed and aortas were removed. DiD fluorescence associated with aortas were analyzed using the Xenogen IVIS optical imaging system. […] The side effects of different LXR agonist formulations were assessed.
FIGS. 8A and 8B show the effects of TO901317-encapsulated sHDL particles on plasma lipids in C57BL/6J Mice. C57BL/6J wild type mice were divided into 8 groups and treated with DMSO, TO901317 at 0.5 mg/kg, TO901317 at 1.5 mg/kg, TO901317 at 10 mg/kg, or sHDL blank particles, TO901317-encapsulated sHDL particles with TO901317 at 0.5 mg/kg, TO901317-encapsulated sHDL particles with TO901317 at 1.5 mg/kg, TO901317-encapsulated sHDL particles with TO901317 at 10 mg/kg via intraperitoneal injection. Twenty-four hours later, collected plasma and liver tissues were stored at −80° C. until processed. […]

ABCA1 [3] = assay: qRT-PCR of ABCA1 expression in J774.1 macrophages; format: cell-based, murine; conditions: FIG. 3C
Description: (§2) Incorporation of LXR agonist into sHDL is the first and most important step for all subsequent studies. Phospholipids, apoA-I mimetic peptide (22A) and LXR agonist TO901317 (TO) were hydrated in an aqueous solution and the sHDL nanoparticles were formed after 3 cycles of thermal cycling between 25 and 50° C. (see, e.g., Di Bartolo, B. A.; et al., Atherosclerosis 2011, 217 (2), 395-400; Dasseux, J.-L. Peptide/lipid complex formation by co-lyophilization. 2001). The homogeneity of the size distribution was confirmed by gel permeation chromatography (GPC) and scanning electron microscopy (SEM) (FIG. 3A-B). The average particle size of sHDL was 6-14 nm (e.g., 8-10 nm) as determined by dynamic light scattering using a Malvern Nanosizer. […]
(§3) In macrophages, LXRs control transcription of several genes involved in the cholesterol efflux pathway, including ABCA1 and ABCG1. To examine the ability of TO901317-encapsulated sHDL particles to activate LXR-target genes, J774.1 murine macrophage cells were incubated with sHDL blank particles or TO901317-encapsulated sHDL particles (TO901317 at 10^−6M) for 4 hours and the expression of both genes were measured using quantitative real-time PCR (qRT-PCR). […] The resulting cDNA was amplified with appropriate primers using power SYBR Green PCR Master Mix and analyzed on a CFX real-time PCR system (Bio-Rad). […]

ABCG1 [4] = assay: qRT-PCR of ABCG1 in blood monocytes of treated apoE−/− mice; format: in vivo; conditions: 1.5 mg/kg TO901317 i.p., three times per week, 6 weeks, FIG. 11
Description: as §1

SREBP1c [5] = assay: qRT-PCR of SREBP1c in the liver of apoE−/− mice; format: in vivo; conditions: liver tissues from FIG. 12, FIG. 13
Description: (§4) Six-week-old male apoE^−/− mice were place on atherogenic high fat diet (HFD) for 12 weeks to induce atherosclerotic lesion formation. Mice were randomly divided into five groups, and each group was treated with intraperitoneal injections of the following regimens with an equivalent dose of 1.5 mg/kg entrapped TO901317: 1) PBS, 2) DMSO, 3) TO901317 dissolved in dimethyl sulfoxide (DMSO) (free TO901317), 4) sHDL nanoparticles, or 5) TO901317-encapsulated sHDL particles. The mice were treated for 6 weeks (three times per week, on Monday, Wednesday and Friday). Liver tissue triglyceride concentrations were measured using a Triglyceride Quantification Kit (Cayman). Fifty mg of liver was homogenized in a 5% NP-40 buffer, and assay was performed according to manufacturer's directions.
LXR ligands have been implicated in triggering induction of the lipogenic pathway via activation of SREBP-1c in the liver, which leads to the adverse effects of steatosis and hypertriglyceridemia. The liver tissues from FIG. 12 were used to detect the expression of SREBP1c and Fatty acid synthase (FAS) using qRT-PCR as described in FIG. 5.

ABCG1 [6] = assay: qRT-PCR of ABCG1 expression in J774.1 macrophages; format: cell-based, murine; conditions: FIG. 3D
Description: as §2, §3

[7] = Liver tissue triglyceride in apoE−/− mice; format: in vivo; conditions: 1.5 mg/kg TO901317 i.p., three times per week, 6 weeks, FIG. 12
Description: as §4

[8] = Plasma lipids in apoE-deficient mice; format: in vivo; conditions: apoE-deficient mice on HFD, i.p., three times per week, 6 weeks, FIG. 22
Description: Six-week-old male apoE^−/− mice were place on HFD for 6 weeks to induce atherosclerotic lesion formation. Mice were randomized into 5 groups and received intraperitoneal injection with 1) PBS, 2) DMSO, 3) CD3254 dissolved in dimethyl sulfoxide (DMSO) (free CD3254, at 0.1 mg/kg), 4) sHDL nanoparticles, or 5) CD3254-encapsulated sHDL particles with a dose of 0.1 mg/kg of CD3254. The mice were treated for 6 weeks (three times per week, on Monday, Wednesday and Friday). Direct LDL-cholesterol (LDL-c), direct HDL-cholesterol (HDL-c), and enzymatic-colorimetric assays used to determine plasma total cholesterol (TC) and triglycerides (TG) were carried out at the Chemistry Laboratory of the Michigan Diabetes Research and Training Center.

[9] = Plasma lipids in C57BL/6J mice; format: in vivo; conditions: TO901317 0.5, 1.5, 10 mg/kg intraperitoneal, 24 hours later, FIG. 8
Description: FIGS. 8A and 8B show the effects of TO901317-encapsulated sHDL particles on plasma lipids in C57BL/6J Mice. C57BL/6J wild type mice were divided into 8 groups and treated with DMSO, TO901317 at 0.5 mg/kg, TO901317 at 1.5 mg/kg, TO901317 at 10 mg/kg, or sHDL blank particles, TO901317-encapsulated sHDL particles with TO901317 at 0.5 mg/kg, TO901317-encapsulated sHDL particles with TO901317 at 1.5 mg/kg, TO901317-encapsulated sHDL particles with TO901317 at 10 mg/kg via intraperitoneal injection. Twenty-four hours later, collected plasma and liver tissues were stored at −80° C. until processed. Direct LDL-cholesterol (LDL-c), direct HDL-cholesterol (HDL-c), and enzymatic-colorimetric assays used to determine plasma total cholesterol (TC) and triglycerides (TG) were carried out at the Chemistry Laboratory of the Michigan Diabetes Research and Training Center.

O=S(=O)(c1ccccc1)N(CC(F)(F)F)c1ccc(C(O)(C(F)(F)F)C(F)(F)F)cc1 [TO901317]
ABCA1 expression in monocytes (qRT-PCR) (ABCA1 [1]): activated the expression | expression of SREBP1c in the liver (qRT-PCR) (SREBP1c [2]): activated SREBP1c | ABCA1 expression (qRT-PCR) (ABCA1 [3]): upregulated | ABCG1 expression in monocytes (qRT-PCR) (ABCG1 [4]): activated the expression | expression of SREBP1c in the liver (qRT-PCR) (SREBP1c [5]): activated SREBP1c | ABCG1 expression (qRT-PCR) (ABCG1 [6]): upregulated | triglyceride accumulation in the liver [7]: significantly induced the accumulation of triglyceride | plasma TG levels [8]: significantly elevated | plasma TG levels [9]: significantly elevated
